Tests used:
[1] = test system: ID188 patient-derived PDAC 2D line (pre-FOLFIRINOX); experiment: normalised area under dose-response curve (viability relative to DMSO, 7 doses up to 10 µM) (fraction (AUC)); higher = less sensitive (more viability retained); settings: 72 h; top dose: 10 µM
Protocol: (§1)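 Patient-derived 2D PDAC cells (ID188 pre-FOLFIRINOX, passage 5+27; ID211 post-FOLFIRINOX, passage 9+11), 1,500-3,000 cells/well in 96-well plates, were treated with a 415-compound Selleck library in seven concentrations (3-fold dilution series, top 10 µM) for 72 h. Viability was read by CellTiter-Glo ATP luminescence, normalised to the DMSO control, and the area under the dose-response curve was computed with the GRmetrics R package; a lower AUC means higher sensitivity.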

[2] = test system: ID211 patient-derived PDAC 2D line (post-FOLFIRINOX); experiment: as above; settings: 72 h; top dose: 10 µM
Protocol: as §1

| Structure (SMILES) | normalised area under dose-response curve [1] | normalised area under dose-response curve [2] |
| --- | --- | --- |
| N#CN=C(NCCCCCCOc1ccc(Cl)cc1)Nc1ccncc1 [GMX1778 (CHS828)] | 0.283 | 0.296 |
| Cc1cccc(-c2[nH]c(CNc3ccccc3F)nc2-c2ccc3ncnn3c2)n1 [Vactosertib (TEW-7197)] | 0.931 | 0.871 |
| O=C(c1cc(Cc2n[nH]c(=O)c3ccccc23)ccc1F)N1CCN(C(=O)C2CC2)CC1 | 0.917 | 0.865 |
| CCNC(=O)C#Cc1ccc2c(C(=Nc3ccc(CN(C)C)cc3)c3ccccc3)c(O)[nH]c2c1 | 0.621 | 0.264 |
| c1ccc2c(CCNc3ccc(Nc4ccncc4)cc3)c[nH]c2c1 | 0.88 | 0.796 |
| CCCS(=O)(=O)Nc1ccc(F)c(C(=O)c2c[nH]c3ncc(Cl)cc23)c1F [PLX-4720] | 0.886 | 0.842 |
| Cc1ccc(S(=O)(=O)Cc2nc(-c3ccc(C(=O)NCc4cccnc4)cc3)oc2C)cc1 | 0.358 | 0.275 |
| Cc1cc(C)c(CNC(=O)c2cc(-c3ccc(N4CCN(C)CC4)nc3)cc3c2c(C)cn3C(C)C)c(=O)[nH]1 [GSK503] | 0.992 | 0.891 |
| CCOC(=O)c1ccc(N2NC(=O)C(=Cc3ccc([N+](=O)[O-])o3)C2=O)cc1 [PYR-41] | 0.91 | 0.807 |
| Cc1[nH]c(/C=C2\C(=O)Nc3ccccc32)c(C)c1CCC(=O)O [Orantinib (TSU-68, SU6668)] | 0.845 | 0.843 |
| COCC1(CO)C(=O)C2CCN1CC2 (stereo unspecified) [APR-246 (PRIMA-1MET)] | 0.947 | 0.86 |
| Cc1ccc(C(=O)Nc2ccc(CN3CCN(C)CC3)c(C(F)(F)F)c2)cc1C#Cc1cnc2cccnn12 | 0.782 | 0.696 |
| Cc1ccccc1C(C(=O)NC1CCCCC1)N(C(=O)Cn1ccnc1C)c1cccc(F)c1 (stereo unspecified) [AGI-5198] | 0.972 | 0.804 |
| CCN(c1cc(-c2ccc(CN3CCOCC3)cc2)cc(C(=O)NCc2c(C)cc(C)[nH]c2=O)c1C)C1CCOCC1 [Tazemetostat (EPZ-6438)] | 0.863 | 0.716 |
| Cc1cc([N+](=O)[O-])ccc1NS(=O)(=O)c1cc(Cl)ccc1Cl [FH535] | 0.91 | 0.922 |
| COc1cc2nc(N3CCCC3)nc(NCCCCCN3CCCC3)c2cc1OC [UNC0379] | 0.943 | 0.829 |
| O=C1C2CCN(CC2)C1(CO)CO [PRIMA-1] | 0.947 | 0.867 |
| NC(=O)c1ccc2nc(-c3ccc(Oc4ccc(Cl)cc4)cc3)[nH]c2c1 [Chk2 Inhibitor II (BML-277)] | 0.967 | 0.865 |
| C=CC(=O)N1CC/C(=C\c2ccc(F)c([N+](=O)[O-])c2)C(=O)/C(=C/c2ccc(F)c([N+](=O)[O-])c2)C1 [VLX1570] | 0.602 | 0.243 |
| O=S(=O)(O)c1ccc2cc(N=Nc3cc(S(=O)(=O)O)c4cccnc4c3O)ccc2c1 | 0.938 | 0.831 |
| O=C(Nc1cccc(C(F)(F)F)c1)Nc1cc(S(=O)(=O)NC2CC2)ccc1-c1ccsc1 [AGI-6780] | 0.906 | 0.842 |
| CCCOc1ccn2c(C(C)=O)cc(-c3ccccc3S(C)(=O)=O)c2c1 [GSK2801] | 0.964 | 0.782 |
| O=C(c1ccc(F)c(F)c1Nc1ccc(I)cc1F)N1CC(O)([C@@H]2CCCCN2)C1 [Cobimetinib (GDC-0973, RG7420)] | 0.639 | 0.26 |

Reference: the supplement of paper PMC8988213
